Reference: paper PMC3215231, “Arcanolysin is a cholesterol-dependent cytolysin of the human pathogen Arcanobacterium haemolyticum” (BMC Microbiology, 2011)

Target: PFO (perfringolysin O), His-tagged PFO (Clostridium perfringens, UniProt P0C2E9)
Type: biochemical

Chain of PFO (perfringolysin O), His-tagged PFO (P0C2E9 29-500 limits assumed): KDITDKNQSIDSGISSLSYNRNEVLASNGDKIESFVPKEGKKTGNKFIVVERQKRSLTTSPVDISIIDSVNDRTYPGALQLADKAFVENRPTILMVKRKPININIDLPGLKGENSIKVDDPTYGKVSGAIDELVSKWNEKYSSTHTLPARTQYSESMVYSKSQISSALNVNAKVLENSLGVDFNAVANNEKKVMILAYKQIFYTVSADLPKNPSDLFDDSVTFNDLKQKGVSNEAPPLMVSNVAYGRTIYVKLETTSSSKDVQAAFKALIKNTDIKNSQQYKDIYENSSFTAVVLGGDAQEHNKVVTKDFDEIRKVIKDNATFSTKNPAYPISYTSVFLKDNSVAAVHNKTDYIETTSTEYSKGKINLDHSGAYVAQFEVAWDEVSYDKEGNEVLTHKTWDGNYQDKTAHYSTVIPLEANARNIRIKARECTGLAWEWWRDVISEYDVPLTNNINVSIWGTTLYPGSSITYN

CC(C)CCC[C@@H](C)[C@H]1CC[C@H]2[C@@H]3CC=C4C[C@@H](O)CC[C@]4(C)[C@H]3CC[C@]12C [cholesterol]
% activity retained at 0.5 μM cholesterol: 7.6%
